Source: PubChem BioAssay (NCI)
Several values for one entry are separate records, joined by “and”; a condition that tells them apart may be missing. Equal entries are not always repeated.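 The compound was tested at five concentrations on cells cultured in 96-well plates, with a 48-hour exposure period. Abbreviation: GI50, concentration required for 50% inhibition of growth. TGI: concentration producing complete growth inhibition.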

Assays:
Assay in all cases: NCI-60 cell line screen, 48 h
HL-60(TB) leukemia = tested on: HL-60(TB) leukemia
RPMI-8226 leukemia = tested on: RPMI-8226 leukemia
SF-268 CNS = tested on: SF-268 CNS
A498 renal = tested on: A498 renal
786-0 renal = tested on: 786-0 renal
MDA-MB-435 = tested on: MDA-MB-435
UO-31 renal = tested on: UO-31 renal
M14 melanoma = tested on: M14 melanoma
HOP-62 NSCLC = tested on: HOP-62 NSCLC
LOX IMVI melanoma = tested on: LOX IMVI melanoma
CAKI-1 renal = tested on: CAKI-1 renal
KM12 colon = tested on: KM12 colon
PC-3 prostate = tested on: PC-3 prostate
UACC-62 melanoma = tested on: UACC-62 melanoma
NCI-H23 lung = tested on: NCI-H23 lung
HCC-2998 colon = tested on: HCC-2998 colon
TK-10 renal = tested on: TK-10 renal
HCT-116 colon = tested on: HCT-116 colon
SNB-19 CNS = tested on: SNB-19 CNS
MCF7 breast = tested on: MCF7 breast
SF-295 CNS = tested on: SF-295 CNS
MOLT-4 leukemia = tested on: MOLT-4 leukemia
HCT-15 colon = tested on: HCT-15 colon
K-562 leukemia = tested on: K-562 leukemia
EKVX NSCLC = tested on: EKVX NSCLC
OVCAR-5 ovarian = tested on: OVCAR-5 ovarian
OVCAR-8 ovarian = tested on: OVCAR-8 ovarian
DU-145 prostate = tested on: DU-145 prostate
MDA-MB-231 breast = tested on: MDA-MB-231 breast
COLO 205 colon = tested on: COLO 205 colon
CCRF-CEM leukemia = tested on: CCRF-CEM leukemia
SW-620 colon = tested on: SW-620 colon
NCI-H522 lung = tested on: NCI-H522 lung
NCI-H460 lung = tested on: NCI-H460 lung
OVCAR-4 ovarian = tested on: OVCAR-4 ovarian
IGROV1 ovarian = tested on: IGROV1 ovarian
HT29 colon = tested on: HT29 colon
UACC-257 melanoma = tested on: UACC-257 melanoma
A549 NSCLC = tested on: A549 NSCLC
HS 578T breast = tested on: HS 578T breast
BT-549 breast = tested on: BT-549 breast
OVCAR-3 ovarian = tested on: OVCAR-3 ovarian
SR leukemia = tested on: SR leukemia
NCI-H226 lung = tested on: NCI-H226 lung
SK-MEL-28 melanoma = tested on: SK-MEL-28 melanoma
SN12C renal = tested on: SN12C renal
ACHN renal = tested on: ACHN renal
RXF 393 renal = tested on: RXF 393 renal
MALME-3M melanoma = tested on: MALME-3M melanoma
SK-OV-3 ovarian = tested on: SK-OV-3 ovarian
T-47D breast = tested on: T-47D breast
U251 CNS = tested on: U251 CNS
SNB-75 CNS = tested on: SNB-75 CNS
SK-MEL-5 melanoma = tested on: SK-MEL-5 melanoma
SK-MEL-2 melanoma = tested on: SK-MEL-2 melanoma
SF-539 CNS = tested on: SF-539 CNS
HOP-92 NSCLC = tested on: HOP-92 NSCLC
NCI/ADR-RES ovarian = tested on: NCI/ADR-RES ovarian

## Cc1ccnc2[nH]c(-c3cccc4ccccc34)cc(=O)c12
HL-60(TB) leukemia
  TGI: 0.00697 µM
RPMI-8226 leukemia
  TGI: 28.6 µM
SF-268 CNS
  GI50: 15.8 µM
  TGI: > 100 µM
A498 renal
  TGI: 0.0681 µM
786-0 renal
  TGI: > 100 µM
MDA-MB-435
  TGI: 0.000495 µM
UO-31 renal
  GI50: 0.0368 µM
  TGI: 53.8 µM
M14 melanoma
  GI50: 0.0132 µM
  TGI: > 100 µM
HOP-62 NSCLC
  GI50: 7.39 µM
  TGI: > 100 µM
LOX IMVI melanoma
  TGI: 17.1 µM
CAKI-1 renal
  TGI: > 100 µM
KM12 colon
  TGI: 3.85 µM
PC-3 prostate
  GI50: 0.0199 µM
UACC-62 melanoma
  TGI: 26.5 µM
NCI-H23 lung
  GI50: 0.0315 µM
  TGI: > 100 µM
HCC-2998 colon
  GI50: 0.101 µM
  TGI: 0.363 µM and 0.707 µM
TK-10 renal
  GI50: 25.8 µM
  TGI: > 100 µM
HCT-116 colon
  TGI: 14.2 µM
SNB-19 CNS
  TGI: > 100 µM
MCF7 breast
  GI50: 0.0431 µM
  TGI: 28 µM
SF-295 CNS
  GI50: 0.0107 µM
  TGI: > 100 µM
MOLT-4 leukemia
  TGI: > 100 µM
HCT-15 colon
  GI50: 0.0152 µM
  TGI: > 100 µM
K-562 leukemia
  TGI: 63.9 µM
EKVX NSCLC
  GI50: 0.0151 µM
  TGI: 34.6 µM
OVCAR-5 ovarian
  GI50: 0.0813 µM
  TGI: > 100 µM
OVCAR-8 ovarian
  GI50: 0.0169 µM
  TGI: 16 µM
DU-145 prostate
  GI50: 0.0284 µM
  TGI: > 100 µM
MDA-MB-231 breast
  GI50: 0.0656 µM
  TGI: 6.8 µM
COLO 205 colon
  GI50: 0.015 µM
  TGI: 0.0992 µM and 0.205 µM
CCRF-CEM leukemia
  TGI: > 100 µM
SW-620 colon
  TGI: > 100 µM
NCI-H522 lung
  TGI: 0.00758 µM and 0.0471 µM
NCI-H460 lung
  TGI: > 100 µM
OVCAR-4 ovarian
  GI50: 17.6 µM
  TGI: > 100 µM
IGROV1 ovarian
  GI50: 0.0585 µM
  TGI: 50 µM
HT29 colon
  TGI: 0.0785 µM and 0.0628 µM
UACC-257 melanoma
  TGI: > 100 µM
A549 NSCLC
  GI50: 0.0132 µM
  TGI: > 100 µM
HS 578T breast
  GI50: 0.0173 µM
  TGI: 92.7 µM
BT-549 breast
  TGI: 72 µM
OVCAR-3 ovarian
  TGI: 0.0115 µM
SR leukemia
  TGI: 34.8 µM
NCI-H226 lung
  TGI: 33.9 µM
SK-MEL-28 melanoma
  TGI: 40.2 µM
SN12C renal
  GI50: 0.678 µM
  TGI: > 100 µM
ACHN renal
  GI50: 0.039 µM
  TGI: > 100 µM
RXF 393 renal
  TGI: > 100 µM
MALME-3M melanoma
  TGI: 0.0474 µM

## Cc1nnc2sc(Cc3cnc(N)s3)nn12
HL-60(TB) leukemia
  TGI: > 100 µM
RPMI-8226 leukemia
  TGI: > 100 µM
SF-268 CNS
  TGI: > 100 µM
SK-OV-3 ovarian
  TGI: > 100 µM
786-0 renal
  TGI: > 100 µM
UO-31 renal
  TGI: > 100 µM
M14 melanoma
  TGI: > 100 µM
HOP-62 NSCLC
  TGI: > 100 µM
T-47D breast
  TGI: > 100 µM
U251 CNS
  TGI: > 100 µM
KM12 colon
  TGI: > 100 µM
PC-3 prostate
  TGI: > 100 µM
UACC-62 melanoma
  TGI: > 100 µM
NCI-H23 lung
  TGI: > 100 µM
HCC-2998 colon
  TGI: > 100 µM
TK-10 renal
  TGI: > 100 µM
HCT-116 colon
  TGI: > 100 µM
SNB-19 CNS
  TGI: > 100 µM
MCF7 breast
  TGI: > 100 µM
SNB-75 CNS
  TGI: > 100 µM
SK-MEL-5 melanoma
  TGI: > 100 µM
MOLT-4 leukemia
  TGI: > 100 µM
HCT-15 colon
  TGI: > 100 µM
K-562 leukemia
  TGI: > 100 µM
SK-MEL-2 melanoma
  TGI: > 100 µM
EKVX NSCLC
  TGI: > 100 µM
OVCAR-5 ovarian
  TGI: > 100 µM
OVCAR-8 ovarian
  TGI: > 100 µM
DU-145 prostate
  TGI: > 100 µM
MDA-MB-231 breast
  TGI: > 100 µM
COLO 205 colon
  TGI: > 100 µM
CCRF-CEM leukemia
  TGI: > 100 µM
SW-620 colon
  TGI: > 100 µM
NCI-H522 lung
  TGI: > 100 µM
NCI-H460 lung
  TGI: > 100 µM
OVCAR-4 ovarian
  TGI: > 100 µM
IGROV1 ovarian
  TGI: > 100 µM
HT29 colon
  TGI: > 100 µM
UACC-257 melanoma
  TGI: > 100 µM
A549 NSCLC
  TGI: > 100 µM
HS 578T breast
  TGI: > 100 µM
SF-539 CNS
  TGI: > 100 µM
SR leukemia
  TGI: > 100 µM
NCI-H226 lung
  TGI: > 100 µM
SK-MEL-28 melanoma
  TGI: > 100 µM
SN12C renal
  TGI: > 100 µM
HOP-92 NSCLC
  TGI: > 100 µM
ACHN renal
  TGI: > 100 µM
NCI/ADR-RES ovarian
  TGI: > 100 µM
RXF 393 renal
  TGI: > 100 µM
MALME-3M melanoma
  TGI: > 100 µM
